Reference: ChEMBL document CHEMBL1201862, “PubChem BioAssay data set” (2004)
Active and inactive are the calls of the source.

Legend:
[1] = C. albicans growth with fluconazole, confirmation, fluorescence, retest (AID 2467); type: functional, cell-based
cells [2] = type: functional, cell-based
[3] = target: ATP-dependent molecular chaperone HSP82 (Candida albicans (strain WO-1) (Yeast), UniProt C4YTQ8); experiment: loss of DOC-induced GRE-beta-galactosidase reporter signal, dose response, Hsp90 inhibitor project, S. cerevisiae, luminescence (AID 2400); type: functional, cell-based;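 further: beta-galactosidase luminescence from glucocorticoid response element reporter as proxy for Hsp90 function; inhibitor potency where signal loss means Hsp90 inhibition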
[4] = inhibitors of intracellular T. cruzi replication, confirmation, NIH3T3 host cells, beta-gal luminescence (AID 2044); type: functional, cell-based;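 further: intracellular parasites grown in NIH/3T3 mouse fibroblasts as host cells; luminescent beta-galactosidase reporter signal from transgenic T. cruzi replicating inside host cells; inhibitors lower the luminescence signal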
[5] = NIH-3T3 fibroblast cytotoxicity, dose response, cytotoxicity control, cell-based, fluorescence, Alamar Blue, secondary assay (AID 2327); type: functional;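 further: NIH-3T3 mouse fibroblasts cultured with fluconazole at 8 µg/mL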
[6] = target: T1, Serine/threonine-protein phosphatase (Candida dubliniensis (strain CD36 / CBS 7987 / NCPF 3949 / NRRLY-17841) (Yeast), UniProt B9W6M3); experiment: calcineurin pathway inhibitors in yeast reporter, dose response, S. cerevisiae, CDRE-lacZ, luminescence, secondary (AID 2388); type: functional, cell-based;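 further: yeast reporter cells carrying a calcineurin-responsive lacZ construct stimulated with calcium chloride; luminescent beta-galactosidase reporter signal in whole cells rather than isolated phosphatase activity; potency for inhibition where a drop in reporter signal means calcineurin blockade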
T1 sequence (B9W6M3 whole entry): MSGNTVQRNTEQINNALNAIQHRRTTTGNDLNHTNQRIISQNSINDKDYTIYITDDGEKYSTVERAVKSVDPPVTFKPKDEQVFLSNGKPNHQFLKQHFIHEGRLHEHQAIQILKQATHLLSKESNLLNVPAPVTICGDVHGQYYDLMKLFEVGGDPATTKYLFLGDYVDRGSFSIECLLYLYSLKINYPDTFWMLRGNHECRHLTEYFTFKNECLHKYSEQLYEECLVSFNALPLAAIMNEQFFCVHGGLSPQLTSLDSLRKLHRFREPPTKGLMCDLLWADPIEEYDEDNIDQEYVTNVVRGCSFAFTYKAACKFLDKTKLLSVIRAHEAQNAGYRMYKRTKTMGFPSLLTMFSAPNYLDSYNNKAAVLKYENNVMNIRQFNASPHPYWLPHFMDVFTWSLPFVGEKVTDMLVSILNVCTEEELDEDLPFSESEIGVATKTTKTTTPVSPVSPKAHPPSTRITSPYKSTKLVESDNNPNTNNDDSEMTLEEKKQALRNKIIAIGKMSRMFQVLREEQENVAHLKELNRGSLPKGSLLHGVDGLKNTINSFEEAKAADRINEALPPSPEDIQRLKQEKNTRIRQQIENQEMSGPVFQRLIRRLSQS

INS1 = experiment: beta cell apoptosis inhibitors, cytokine rescue, dose response, luminescence, retest (AID 449756); type: functional, cell-based; settings: Rattus norvegicus;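 further: cell death triggered by IL-1 beta plus TNF-alpha plus IFN-gamma mixture; protective hits raise ATP signal compared with cytokine alone wells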
[7] = cytotoxicity toward NIH3T3 fibroblasts, dose response, counter-screen, cell-based, ATP luminescence, mouse fibroblasts (AID 2010); type: functional;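 further: cells exposed to compound for about 90 hours before reading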
[8] = NIH-3T3 fibroblast cytotoxicity, dose response, cytotoxicity control for antifungal single agent project, cell-based, Alamar Blue, dry powder (AID 602188); type: functional
Vero = experiment: cells; type: functional; settings: Chlorocebus sabaeus
cells [9] = type: functional, cell-based; remark: listed apart in the source
Streptokinase A = target: T2, Streptokinase A (Streptococcus pyogenes serotype M1, UniProt P10520); experiment: S. pyogenes streptokinase expression inhibitors, potency, dose response, plasminogen activation absorbance, OD405 (AID 1914); type: functional, Streptococcus pyogenes M1 GAS;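 further: secreted streptokinase activity via plasminogen activation per viability signal from cell pellet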
T2 sequence (P10520 whole entry): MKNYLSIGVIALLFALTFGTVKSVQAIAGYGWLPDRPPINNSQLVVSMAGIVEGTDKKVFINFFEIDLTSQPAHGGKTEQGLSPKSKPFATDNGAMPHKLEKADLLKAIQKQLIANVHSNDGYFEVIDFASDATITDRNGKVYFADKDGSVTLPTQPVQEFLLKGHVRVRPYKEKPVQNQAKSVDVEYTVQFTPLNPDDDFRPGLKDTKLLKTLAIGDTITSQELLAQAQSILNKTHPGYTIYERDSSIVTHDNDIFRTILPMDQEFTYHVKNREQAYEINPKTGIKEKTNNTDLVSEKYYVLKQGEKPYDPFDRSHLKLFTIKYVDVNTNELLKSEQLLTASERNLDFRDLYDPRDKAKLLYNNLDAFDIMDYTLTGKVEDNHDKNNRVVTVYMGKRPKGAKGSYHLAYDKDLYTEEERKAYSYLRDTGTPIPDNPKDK

[10] = target: Heat shock protein HSP 90-alpha (Homo sapiens, UniProt P07900); type: functional, organism-based
[11] = system: Streptococcus sp. 'group A'; experiment: growth inhibition of control SK(-) GAS strain, dose response, counter-screen for streptokinase expression inhibitor project, luminescence, kanamycin, BacTiterGlo, confirmation (AID 1900); type: functional, organism-based
Streptococcus = experiment: Group A Streptococcus viability loss, dose response, counter-screen for streptokinase expression inhibitor project, luminescence, BacTiterGlo (AID 1915); type: functional, organism-based;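 further: potency for reduction of bacterial viability or growth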
Escherichia coli = experiment: microbe, parasite or virus in culture
[12] = target: Voltage-gated inwardly rectifying potassium channel KCNH2 (Homo sapiens, UniProt Q12809); settings: Potency;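 further: confirmatory quantitative high-throughput screen measuring inhibition of hERG channel activity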
[13] = Luminescence Cell-Based Dose Confirmation HTS to Identify Activators of 5'UTR Stem-Loop Driven Alpha-Synuclein mRNA Translation in H4 Neuroglioblastoma Cells. [Related pubchem assays: 1829 (Project Summary), 1814 (Primary HTS)]; type: functional
H4 = experiment: Luminescence Cell-Based Dose Response HTS to Identify Activators of 5'UTR Stem-Loop Driven Prion Protein mRNA Translation in H4 Neuroglioblastoma Cells. [Related pubchem assays: 1829 (Project Summary), 1814 (Primary HTS)]; type: functional; settings: Homo sapiens
[14] = Luminescence Cell-Based Dose Response HTS to Identify Activators of Luciferase Translation or Activity in H4 […] Cells. [Related pubchem assays: 1829 (Project Summary), 1814 (Primary HTS)]; type: functional
Melanocortin receptor 4 = Melanocortin receptor 4 (Homo sapiens, UniProt P32245); type: functional, cell-based;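 further: Cell-based assay with luminescence read-out, confirmatory dose-response testing for agonist activity of biased ligands at MC4R; human U2OS cells with tagged receptor and beta-arrestin; potency of agonists that increase receptor coupling to beta-arrestin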
Protein Wnt-3a = Protein Wnt-3a (Mus musculus, UniProt P27467); experiment: Wnt3a-driven reporter signaling inhibition, dose response, selectivity assay for Gli-SUFU antagonist project, Wnt-LIGHT cells, luminescence (AID 651570); type: functional; settings: read-out: IC50_Mean;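 further: Wnt-LIGHT reporter cells stimulated with conditioned medium from Wnt3a-producing cells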
[15] = target: T3, COUP transcription factor 2 (Homo sapiens, UniProt P24468); experiment: Luminescence-based cell-based high throughput dose response assay to identify inhibitors of COUP-TFII (NR2F2).; type: functional;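 further: HEK293 cells transiently cotransfected with COUP-TFII expression vector and reporter; luciferase reporter luminescence driven by COUP-TFII from the pX2-168 reporter plasmid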
T3 sequence (P24468 whole entry): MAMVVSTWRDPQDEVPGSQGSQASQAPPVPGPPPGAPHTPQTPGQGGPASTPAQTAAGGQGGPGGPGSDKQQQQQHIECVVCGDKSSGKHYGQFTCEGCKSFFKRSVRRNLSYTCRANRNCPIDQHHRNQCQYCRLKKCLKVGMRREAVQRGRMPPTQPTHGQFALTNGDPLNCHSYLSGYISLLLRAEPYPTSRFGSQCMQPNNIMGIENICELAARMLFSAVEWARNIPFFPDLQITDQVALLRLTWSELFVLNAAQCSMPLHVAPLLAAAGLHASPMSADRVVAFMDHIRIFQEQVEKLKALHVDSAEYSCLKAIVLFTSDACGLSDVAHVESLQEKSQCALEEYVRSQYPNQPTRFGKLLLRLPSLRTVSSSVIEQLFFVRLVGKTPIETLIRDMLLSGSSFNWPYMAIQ

Cysteine protease ATG4B = target: T4, Cysteine protease ATG4B (Homo sapiens, UniProt Q9Y4P1); type: functional;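 further: Fluorescence-based dose-response confirmation assay measuring inhibition of ATG4B activity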
T4 sequence (Q9Y4P1 whole entry): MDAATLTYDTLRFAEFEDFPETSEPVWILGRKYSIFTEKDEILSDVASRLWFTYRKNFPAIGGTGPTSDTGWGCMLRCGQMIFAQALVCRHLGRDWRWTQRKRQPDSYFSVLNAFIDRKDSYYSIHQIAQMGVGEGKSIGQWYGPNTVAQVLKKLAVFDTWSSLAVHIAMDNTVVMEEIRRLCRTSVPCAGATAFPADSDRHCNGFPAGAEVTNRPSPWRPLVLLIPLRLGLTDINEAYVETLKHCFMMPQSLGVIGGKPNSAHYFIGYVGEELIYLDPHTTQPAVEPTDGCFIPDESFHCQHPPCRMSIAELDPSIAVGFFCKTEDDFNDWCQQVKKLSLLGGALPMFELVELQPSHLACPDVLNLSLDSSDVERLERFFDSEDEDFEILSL

Phospholipase A2 = Phospholipase A2 (Homo sapiens, UniProt P04054); type: functional;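 further: confirmatory dose-response counterscreen on phospholipase A2, testing hits that came from an ultra-high-throughput screen for ATG4B inhibitors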
[16] = target: Glucose-6-phosphate 1-dehydrogenase (Homo sapiens, UniProt P11413); experiment: human G6PD enzyme inhibitors, dose response, selectivity assay for P. falciparum G6PD inhibitor project, biochemical, fluorescence (AID 504792); type: functional
H9c2 = experiment: cells; type: functional, cell-based; settings: Rattus norvegicus, H9c2, Myocardium;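 further: confirmatory concentration-response retest of ultra-high-throughput screening hits for modulation of myocardial damage; cell death induced by hydrogen peroxide oxidative stress; compound pretreatment for 60 min then peroxide exposure for 2 h; potency is for protecting the cells against peroxide damage rather than for killing them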
[17] = target: Voltage-dependent T-type calcium channel subunit alpha-1H (Homo sapiens, UniProt O95180); type: functional;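 further: channel activity triggered by adding a high calcium stimulation buffer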
[18] = Luminescence Cell-Based Dose Retest to Confirm Inhibitors of Cancer Stem Cells. [Related pubchem assays (depositor defined):AID2717, AID2721]; type: functional; settings: Homo sapiens
[19] = target: T5, Mitochondrial peptide methionine sulfoxide reductase (Bos taurus, UniProt P54149); type: functional;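 further: absorbance read-out, biochemical high-throughput dose-response screen for MsrA inhibitors, confirmatory; recombinant bovine MsrA coupled to E. coli TrxB with NADPH and selenocystamine; potency is for inhibitors of MsrA activity on DMSO substrate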
T5 sequence (P54149 whole entry): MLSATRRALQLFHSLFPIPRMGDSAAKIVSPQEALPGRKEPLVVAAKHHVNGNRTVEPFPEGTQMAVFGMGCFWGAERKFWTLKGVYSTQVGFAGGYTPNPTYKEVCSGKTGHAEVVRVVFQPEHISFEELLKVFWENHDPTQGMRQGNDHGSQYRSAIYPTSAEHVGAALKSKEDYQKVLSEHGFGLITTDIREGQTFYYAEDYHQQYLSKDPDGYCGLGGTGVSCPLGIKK

Chain of ATP-dependent molecular chaperone HSP82 (C4YTQ8 whole entry): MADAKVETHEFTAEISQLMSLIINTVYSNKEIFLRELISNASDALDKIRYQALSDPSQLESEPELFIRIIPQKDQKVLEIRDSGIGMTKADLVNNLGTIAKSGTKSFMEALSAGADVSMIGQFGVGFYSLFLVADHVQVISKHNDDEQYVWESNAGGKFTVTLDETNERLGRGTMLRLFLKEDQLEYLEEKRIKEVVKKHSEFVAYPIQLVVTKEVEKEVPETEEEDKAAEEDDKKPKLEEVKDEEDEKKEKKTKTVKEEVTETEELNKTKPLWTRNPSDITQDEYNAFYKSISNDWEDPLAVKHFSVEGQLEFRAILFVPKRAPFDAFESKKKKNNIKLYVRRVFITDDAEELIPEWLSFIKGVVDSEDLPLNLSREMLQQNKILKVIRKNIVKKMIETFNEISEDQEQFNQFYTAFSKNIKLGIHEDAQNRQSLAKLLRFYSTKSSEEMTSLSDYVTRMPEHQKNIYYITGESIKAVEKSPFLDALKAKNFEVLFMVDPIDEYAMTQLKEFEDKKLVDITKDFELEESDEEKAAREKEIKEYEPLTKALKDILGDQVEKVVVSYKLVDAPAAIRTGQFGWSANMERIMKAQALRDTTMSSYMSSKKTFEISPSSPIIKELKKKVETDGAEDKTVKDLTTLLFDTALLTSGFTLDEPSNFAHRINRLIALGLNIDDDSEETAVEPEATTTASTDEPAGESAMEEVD
Chain of Phospholipase A2 (P04054 whole entry): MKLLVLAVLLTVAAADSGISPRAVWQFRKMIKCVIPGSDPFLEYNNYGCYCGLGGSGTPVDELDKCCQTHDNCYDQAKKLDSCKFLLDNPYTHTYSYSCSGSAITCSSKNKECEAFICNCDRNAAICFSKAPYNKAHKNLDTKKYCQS
Chain of Voltage-gated inwardly rectifying potassium channel KCNH2 (Q12809 whole entry): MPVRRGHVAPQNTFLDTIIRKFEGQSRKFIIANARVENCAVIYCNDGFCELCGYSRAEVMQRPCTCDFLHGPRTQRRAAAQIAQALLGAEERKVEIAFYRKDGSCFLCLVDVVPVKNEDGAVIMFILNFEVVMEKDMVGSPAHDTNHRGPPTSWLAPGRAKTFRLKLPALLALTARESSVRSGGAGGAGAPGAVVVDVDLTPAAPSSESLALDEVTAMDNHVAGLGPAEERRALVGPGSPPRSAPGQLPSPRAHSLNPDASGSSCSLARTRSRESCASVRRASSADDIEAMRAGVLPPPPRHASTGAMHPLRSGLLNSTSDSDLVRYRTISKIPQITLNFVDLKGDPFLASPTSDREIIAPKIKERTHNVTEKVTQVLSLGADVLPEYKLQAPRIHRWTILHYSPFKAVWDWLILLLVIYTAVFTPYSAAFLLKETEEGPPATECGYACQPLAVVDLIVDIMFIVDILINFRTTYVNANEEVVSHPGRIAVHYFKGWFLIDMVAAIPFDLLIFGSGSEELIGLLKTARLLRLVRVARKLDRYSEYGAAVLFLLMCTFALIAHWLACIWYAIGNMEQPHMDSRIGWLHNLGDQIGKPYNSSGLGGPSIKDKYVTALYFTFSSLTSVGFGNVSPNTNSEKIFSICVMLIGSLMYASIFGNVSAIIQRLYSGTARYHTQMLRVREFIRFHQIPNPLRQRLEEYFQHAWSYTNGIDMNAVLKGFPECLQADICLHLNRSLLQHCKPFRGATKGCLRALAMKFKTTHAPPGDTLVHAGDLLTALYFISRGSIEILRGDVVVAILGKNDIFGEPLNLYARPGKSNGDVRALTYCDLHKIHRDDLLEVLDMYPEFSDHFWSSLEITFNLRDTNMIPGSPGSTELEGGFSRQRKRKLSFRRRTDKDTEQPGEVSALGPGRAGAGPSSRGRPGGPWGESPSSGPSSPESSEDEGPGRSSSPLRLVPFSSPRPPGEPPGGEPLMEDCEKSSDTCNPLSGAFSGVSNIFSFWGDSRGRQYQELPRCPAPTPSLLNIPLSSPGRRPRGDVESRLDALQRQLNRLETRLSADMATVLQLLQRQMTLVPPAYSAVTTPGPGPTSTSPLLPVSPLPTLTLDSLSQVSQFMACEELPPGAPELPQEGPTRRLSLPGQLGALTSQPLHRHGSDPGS
Chain of Protein Wnt-3a (P27467 whole entry): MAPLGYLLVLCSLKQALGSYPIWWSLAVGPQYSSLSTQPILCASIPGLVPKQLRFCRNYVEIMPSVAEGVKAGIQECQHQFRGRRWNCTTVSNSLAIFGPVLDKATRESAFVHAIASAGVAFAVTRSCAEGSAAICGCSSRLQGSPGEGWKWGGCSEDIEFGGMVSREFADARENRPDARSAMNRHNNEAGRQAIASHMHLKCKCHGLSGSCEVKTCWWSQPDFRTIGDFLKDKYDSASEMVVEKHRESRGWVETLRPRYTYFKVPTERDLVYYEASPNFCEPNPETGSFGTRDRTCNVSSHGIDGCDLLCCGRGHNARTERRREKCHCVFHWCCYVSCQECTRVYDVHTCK
Chain of Melanocortin receptor 4 (P32245 whole entry): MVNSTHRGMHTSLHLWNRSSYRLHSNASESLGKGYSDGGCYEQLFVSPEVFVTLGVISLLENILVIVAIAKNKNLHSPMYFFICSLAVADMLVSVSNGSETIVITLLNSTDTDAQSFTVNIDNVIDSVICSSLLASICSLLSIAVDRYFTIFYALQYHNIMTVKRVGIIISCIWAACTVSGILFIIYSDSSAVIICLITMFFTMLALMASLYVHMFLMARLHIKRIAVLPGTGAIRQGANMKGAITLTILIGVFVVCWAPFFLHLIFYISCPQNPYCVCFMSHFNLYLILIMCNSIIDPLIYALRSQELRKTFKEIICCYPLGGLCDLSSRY
Chain of Glucose-6-phosphate 1-dehydrogenase (P11413 whole entry): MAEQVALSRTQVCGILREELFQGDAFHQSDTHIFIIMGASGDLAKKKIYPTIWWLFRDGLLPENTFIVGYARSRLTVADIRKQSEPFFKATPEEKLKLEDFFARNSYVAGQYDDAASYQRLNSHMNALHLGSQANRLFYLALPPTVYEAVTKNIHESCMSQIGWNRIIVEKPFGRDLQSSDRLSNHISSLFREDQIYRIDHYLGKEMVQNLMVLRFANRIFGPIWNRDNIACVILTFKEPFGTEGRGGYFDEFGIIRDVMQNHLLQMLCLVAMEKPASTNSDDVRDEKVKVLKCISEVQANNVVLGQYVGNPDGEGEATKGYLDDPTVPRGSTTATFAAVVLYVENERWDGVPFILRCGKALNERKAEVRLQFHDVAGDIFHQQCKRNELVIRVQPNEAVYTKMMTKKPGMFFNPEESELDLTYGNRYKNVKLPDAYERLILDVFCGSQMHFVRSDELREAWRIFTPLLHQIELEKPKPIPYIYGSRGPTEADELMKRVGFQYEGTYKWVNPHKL

Cc1cc(C)n(-c2nc3ccccc3c(=O)n2OCC#N)n1
EC50 [1]: 0.727 µM (active)
EC50 (cells [2]): 28.9 µM (active)
EC50 [3]: > 150 µM (inactive)
EC50 [4]: 1.14 µM (active)
EC50 [5]: 150 µM (active)
EC50 [6]: > 180 µM (inactive)
AC50 (INS1): 4.13 µM (active)
EC50 [7]: 4.32 µM (active)
AC50 [8]: 0.881 µM (active)
CC50 (Vero): 8.68 µM (active)
EC50 (cells [9]): 137 µM (active)

O=C(NNc1nc2ccc(Cl)cc2s1)c1cc(-c2cccs2)nc2ccccc12
EC50 [1]: 0.433 µM (active)
EC50 (Streptokinase A): > 150 µM (not active)
AC50 [10]: 2.18 µM (active)
EC50 [11]: 0.472 µM (active)
EC50 [3]: 12.8 µM (active)
EC50 [5]: 19.7 µM (active)
EC50 [6]: > 180 µM (inactive)
EC50 (Streptococcus): 5.79 µM (active)

CS(=O)(=O)N1CCN(C(=O)c2cccnc2)CC1
AC50 (Escherichia coli): > 150 µM (inactive)

CC(O)[C@@H](O)[C@H]1CNc2nc(N)[nH]c(=O)c2N1 (some centres undefined)
AC50 [12]: 3.55 µM (inconclusive)

Cc1nnnn1/C(=C\c1ccccc1)C(=O)OCC(=O)Nc1ccc(Cl)cc1F
EC50 [13]: > 120 µM (not active)
EC50 (H4): 5.56 µM (active)
EC50 [14]: > 60 µM (not active)
EC50 (Melanocortin receptor 4): > 89.2 µM (inactive)

CCC(C(=O)NCCC(C)C)n1ccc2cc(S(=O)(=O)N3CCCCC3)ccc21 (centres undefined)
IC50 (Protein Wnt-3a): 5.14 µM (active)

CC(=O)c1cn(CCOc2ccccc2C)c2ccccc12
IC50 [15]: 8.92 µM (active)
IC50 (Protein Wnt-3a): 3.66 µM (active)

CC1CC(C)CN(C(=O)c2ccc(C(=O)c3ccccc3)cc2)C1 (centres undefined)
IC50 (Cysteine protease ATG4B): 10.8 µM (active)
IC50 (Phospholipase A2): 8.32 µM (active)

Cc1sc2nc(C3CCCCC3)nc(SCC(=O)N3CC(=O)Nc4ccccc43)c2c1C
IC50 (Cysteine protease ATG4B): 0.316 µM (active)
IC50 (Phospholipase A2): 0.182 µM (active)

CCCCCCOC(=O)Sc1nc2ccccc2o1
AC50 [10]: 2.78 µM (active)

Cc1cc(C)nc(NC(N)=Nc2ccccc2-c2ccccc2)n1
IC50 [16]: > 80 µM (inactive)
IC50 (Protein Wnt-3a): 16.9 µM (active)

O=C(Nc1nnc(-c2ccc3c(c2)CCCC3)o1)c1ccccc1
EC50 [1]: 0.229 µM (active)
EC50 [3]: 4.72 µM (active)
EC50 [5]: > 160 µM (inactive)
IC50 (H9c2): > 79 µM (inactive)
EC50 [6]: > 180 µM (inactive)
AC50 [8]: 4.89 µM (active)
CC50 (Vero): > 25 µM (active)
EC50 [17]: 3.25 µM (active)

C=C(C)C(=O)OCCCCCCCCCC
AC50 [12]: 3.55 µM (inconclusive)

Cc1nc(NC(=O)c2ccco2)sc1-c1csc(Nc2ccc(Cl)cc2)n1
AC50 (Escherichia coli): 39.7 µM (active)
AC50 [18]: 2.03 µM (active)

Oc1cccc(Cl)c1Cl
AC50 [12]: 5.01 µM (inconclusive)

COc1ccc2sc(-c3ccc(S(C)(=O)=O)cc3)c(C#Cc3cncn3C)c2c1
EC50 (Melanocortin receptor 4): > 89.2 µM (inactive)

Cc1ccc(C(=O)Nc2nnc(-c3ccccc3)o2)cc1C
AC50 [8]: 14.2 µM (active)

Nc1nc2ccccc2n1/N=C/c1ccc2c(c1)OCO2
IC50 [19]: 45.6 µM (inactive)

Oc1c(Br)cc(Br)cc1/C=N/c1ccc2c(c1)OCO2
IC50 (Cysteine protease ATG4B): 4.43 µM (active)
IC50 (Phospholipase A2): 7.68 µM (active)

C/C(=N\Nc1ccc(C#N)cc1[N+](=O)[O-])c1ccc(O)cc1
IC50 [19]: 155 µM (inactive)

Oc1cc2c(cc1O)CN(C(=S)NCCc1ccc(Cl)cc1)CCC2 [CAPSAZEPINE]
AC50 [12]: 11.2 µM (inconclusive)
